Test results from patent US20260200892A1, “CANNABINOID RECEPTOR 2 MODULATORS” (Hoffmann-La Roche Inc., priority 2023, published 2026).

Columns and labels:
[1] = molecular target: T1, human CB2 receptor (hCB2R) (Homo sapiens, UniProt P34972); experiment: TR-FRET hCB2R binding assay; details: TR-FRET, membranes of SNAP-tagged human CB2R HEK293-TR cells, 100 μM GppNHp, nonspecific binding with SR144528; read-out: Kd hCB2R
T1 construct: expressed in transfected cells; membranes

hCB1R = hCB1R (Homo sapiens, UniProt P21554); experiment: hCB1R binding (Kd hCB1R, Table 1)
[2] = molecular target: T2, CB2 receptor (hCB2R), CHO cell line stably overexpressing CB2 receptor (Homo sapiens, UniProt P34972); experiment: cAMP hCB2R functional assay (HTRF); format: cell-based; details: CHO cells overexpressing CB2 receptor, forskolin; for EC50: means ± SEM of 2-3 independent experiments; for Functionality: normalized to Emax of CP55940 (100%)
T2 construct: expressed in transfected cells; host or cells: CHO cell line stably overexpressing CB2 receptor (G418 selection)
Method: cAMP hCB2R Functional Assay
The Homogeneous Time Resolved Fluorescence (HTRF) Assays
The homogeneous time-resolved fluorescence (HTRF) cAMP assay was conducted according to the manufacturer's protocol for the cAMP-Gs Dynamic kit (Cisbio). Briefly, the CHO cell line stably overexpressing CB2 receptor were maintained in Ham's F12 supplemented with 10% FBS, 100 U/ml penicillin and 100 μg/ml streptomycin (Gibco-ThermoFisher) and 400 μg/ml G418 (ThermoFisher). For CB2 compounds test, harvest the cells with Cell Dissociation Buffer and re-suspend the cells in F-12 K at 0.4*10^6 cells/mL, and dispense cells into 384-well low volume plates at 2000 cells/5 μL per well. The cells were stimulated with compounds diluted in Stimulation Buffer (2.5 μL/well) for 15 min at room temperature. And then followed by the addition of 2.5 μL 25 μM forsklin. After 15 mins incubation, reactions were stopped by 5 μL/well cAMP-d2 conjugate working solution followed by 5 μL/well of anti-cAMP cryptate working solution. After incubation for 1 h at room temperature, the plates were read in a PerkinElmer Envision reader for time-resolved fluorescence resonance energy transfer detection at 620 nm and 665 nm.
Quantification and Statistical Analysis
All HTRF ratio data sets of test compounds were normalized to the Emax of CP55940 (100%) and obtained the means±standard error of the mean (SEM) of 2-3 independent experiments performed in technical replicates.

hCB1R, sequence (P21554 whole entry): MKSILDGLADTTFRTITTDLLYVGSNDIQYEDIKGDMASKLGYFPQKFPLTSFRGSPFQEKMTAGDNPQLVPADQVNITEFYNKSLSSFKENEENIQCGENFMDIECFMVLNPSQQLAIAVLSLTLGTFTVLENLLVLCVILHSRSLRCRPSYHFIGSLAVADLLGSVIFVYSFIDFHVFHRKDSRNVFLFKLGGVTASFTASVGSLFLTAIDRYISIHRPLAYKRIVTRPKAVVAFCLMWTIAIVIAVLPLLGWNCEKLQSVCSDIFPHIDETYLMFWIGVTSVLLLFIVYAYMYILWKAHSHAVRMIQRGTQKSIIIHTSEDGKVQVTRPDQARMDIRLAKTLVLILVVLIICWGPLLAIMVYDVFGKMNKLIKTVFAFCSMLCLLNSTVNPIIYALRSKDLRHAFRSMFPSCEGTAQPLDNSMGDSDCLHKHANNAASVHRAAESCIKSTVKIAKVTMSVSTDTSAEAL
T2 sequence (P34972 whole entry): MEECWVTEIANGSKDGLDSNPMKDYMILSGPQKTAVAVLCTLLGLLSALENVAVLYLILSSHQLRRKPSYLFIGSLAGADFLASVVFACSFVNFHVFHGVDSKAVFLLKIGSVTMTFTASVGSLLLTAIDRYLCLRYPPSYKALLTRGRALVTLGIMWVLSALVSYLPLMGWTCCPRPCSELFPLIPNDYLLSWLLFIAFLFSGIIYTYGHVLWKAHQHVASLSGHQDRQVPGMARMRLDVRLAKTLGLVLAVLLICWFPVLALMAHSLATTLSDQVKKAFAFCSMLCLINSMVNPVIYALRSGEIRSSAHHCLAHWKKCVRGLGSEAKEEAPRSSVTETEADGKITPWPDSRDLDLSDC
T1 sequence (P34972 whole entry): as above

| SMILES | Kd [1] | Kd (hCB1R) | EC50 [2] | Functionality [2] |
| --- | --- | --- | --- | --- |
| CCCCC[C@@H](c1cccc(F)c1)C(C)(C)c1cc(OC)c([C@H]2C=C(CO)[C@H]3C[C@@H]2C3(C)C)c(OC)c1 [Example 12, ((1S,4S,5S)-4-(4-((S)-3-(3-fluorophenyl)-2-methyloctan-2-yl)-2,6-dimethoxyphenyl)-6,6-dimethylbicyclo[3.1.1]hept-2-en-2-yl)methanol] | 30 nM | 1950 nM | 209 nM | inverse agonist |
| COc1cc(C(C)(C)[C@H](CCCCCN=[N+]=[N-])c2ccccc2)cc(OC)c1[C@H]1C=C(CNC(=O)CCCCCNC(=O)c2ccc3c(c2)C(=O)OC32c3ccc(N(C)C)cc3Oc3cc(N(C)C)ccc32)[C@H]2C[C@@H]1C2(C)C [Example 25, N-(6-((((1S,4S,5S)-4-(4-((R)-8-azido-2-methyl-3-phenyloctan-2-yl)-2,6-dimethoxyphenyl)-6,6-dimethylbicyclo[3.1.1]hept-2-en-2-yl)methyl)amino)-6-oxohexyl)-3′,6′-bis(dimethylamino)-3-oxo-3H-spiro[isobenzofuran-1,9′-xanthene]-5-carboxamide] | 2.78 nM | 396 nM |  |  |
| CCCCC[C@@H](C(F)(F)F)C(C)(C)c1cc(OC)c([C@H]2C=C(CO)[C@H]3C[C@@H]2C3(C)C)c(OC)c1 [Example 1, ((1S,4S,5S)-4-(2,6-dimethoxy-4-((R)-2-methyl-3-(trifluoromethyl)octan-2-yl)phenyl)-6,6-dimethylbicyclo[3.1.1]hept-2-en-2-yl)methanol] | 606 nM | 11800 nM |  | antagonist |
| CCCCC[C@@H](c1ccc(F)cc1)C(C)(C)c1cc(OC)c([C@H]2C=C(CO)[C@H]3C[C@@H]2C3(C)C)c(OC)c1 [Example 10, ((1S,4S,5S)-4-(4-((S)-3-(4-fluorophenyl)-2-methyloctan-2-yl)-2,6-dimethoxyphenyl)-6,6-dimethylbicyclo[3.1.1]hept-2-en-2-yl)methanol] | 301 nM | 1790 nM |  | antagonist |
| CCCCC[C@@H](c1ccccc1)C(C)(C)c1cc(OC)c([C@H]2C=C(CO)[C@H]3C[C@@H]2C3(C)C)c(OC)c1 [Example 8, ((1S,4S,5S)-4-(2,6-dimethoxy-4-((S)-2-methyl-3-phenyloctan-2-yl)phenyl)-6,6-dimethylbicyclo[3.1.1]hept-2-en-2-yl)methanol] | 4.5 nM | 716 nM | 302 nM | inverse agonist |
| CCCCCC(C(C)C)C(C)(C)c1cc(OC)c([C@H]2C=C(CO)[C@H]3C[C@@H]2C3(C)C)c(OC)c1 (stereo partly drawn) [Example 6, ((1S,4S,5S)-4-(4-(3-isopropyl-2-methyloctan-2-yl)-2,6-dimethoxyphenyl)-6,6-dimethylbicyclo[3.1.1]hept-2-en-2-yl)methanol] | 6.1 nM | 7040 nM |  | antagonist |
| CCCCC[C@@H](CC)C(C)(C)c1cc(OC)c([C@H]2C=C(CO)[C@H]3C[C@@H]2C3(C)C)c(OC)c1 (single isomer, unassigned) [Example 4] | 0.97 nM | 2190 nM |  | antagonist |
| COc1cc(C(C)(C)[C@H](CCCCCN=[N+]=[N-])c2ccccc2)cc(OC)c1[C@H]1C=C(CNC(=O)CCCCCNC(=O)c2ccc3c(c2)C2(OC3=O)c3ccc(O)cc3Oc3cc(O)ccc32)[C@H]2C[C@@H]1C2(C)C [Example 26, N-(6-((((1S,4S,5S)-4-(4-((R)-8-azido-2-methyl-3-phenyloctan-2-yl)-2,6-dimethoxyphenyl)-6,6-dimethylbicyclo[3.1.1]hept-2-en-2-yl)methyl)amino)-6-oxohexyl)-3′,6′-dihydroxy-3-oxo-3H-spiro[isobenzofuran-1,9′-xanthene]-6-carboxamide] | 30.3 nM | 1280 nM |  |  |
| COc1cc(C(C)(C)[C@H](CCCCCN=[N+]=[N-])c2ccccc2)cc(OC)c1[C@H]1C=C(CNC(=O)CCCCCNC(=O)c2ccc3c(c2)C(=O)OC32c3ccc(N)c(S(=O)(=O)O)c3Oc3c2ccc(N)c3S(=O)(=O)O)[C@H]2C[C@@H]1C2(C)C [Example 29, 3′,6′-diamino-5-((6-((((1S,4S,5S)-4-(4-((R)-8-azido-2-methyl-3-phenyloctan-2-yl)-2,6-dimethoxyphenyl)-6,6-dimethylbicyclo[3.1.1]hept-2-en-2-yl)methyl)amino)-6-oxohexyl)carbamoyl)-3-oxo-3H-spiro[isobenzofuran-1,9′-xanthene]-4′,5′-disulfonic acid] | 24.9 nM | 3300 nM |  |  |
| CCCCCC(CCC)C(C)(C)c1cc(OC)c([C@H]2C=C(CO)[C@H]3C[C@@H]2C3(C)C)c(OC)c1 (stereo partly drawn) [Example 5, ((1S,4S,5S)-4-(2,6-dimethoxy-4-(2-methyl-3-propyloctan-2-yl)phenyl)-6,6-dimethylbicyclo[3.1.1]hept-2-en-2-yl)methanol] | 74 nM | 6740 nM | 112 nM | inverse agonist |
| CCCCC[C@H](c1ccc(F)cc1)C(C)(C)c1cc(OC)c([C@H]2C=C(CO)[C@H]3C[C@@H]2C3(C)C)c(OC)c1 [Example 9, ((1S,4S,5S)-4-(4-((R)-3-(4-fluorophenyl)-2-methyloctan-2-yl)-2,6-dimethoxyphenyl)-6,6-dimethylbicyclo[3.1.1]hept-2-en-2-yl)methanol] | 1150 nM | 1480 nM |  | antagonist |
| CCCCC[C@H](c1cccc(F)c1)C(C)(C)c1cc(OC)c([C@H]2C=C(CO)[C@H]3C[C@@H]2C3(C)C)c(OC)c1 [Example 11, ((1S,4S,5S)-4-(4-((R)-3-(3-fluorophenyl)-2-methyloctan-2-yl)-2,6-dimethoxyphenyl)-6,6-dimethylbicyclo[3.1.1]hept-2-en-2-yl)methanol] | 355 nM | 2690 nM | 2340 nM | inverse agonist |
| CCCCCC(CC)C(C)(C)c1cc(OC)c([C@H]2C=C(CO)[C@H]3C[C@@H]2C3(C)C)c(OC)c1 (stereo partly drawn) [Example 3, ((1S,4S,5S)-4-(4-(3-ethyl-2-methyloctan-2-yl)-2,6-dimethoxyphenyl)-6,6-dimethylbicyclo[3.1.1]hept-2-en-2-yl)methanol] | 0.56 nM | 13000 nM | 100 nM | partial agonist |
| COc1cc(C(C)(C)[C@H](CCCCCN=[N+]=[N-])c2ccccc2)cc(OC)c1[C@H]1C=C(CNC(=O)CCCCCNC(=O)CCCCC[N+]2=C(/C=C/C=C/C=C3/N(CCCS(=O)(=O)O)c4ccc(S(=O)(=O)O)cc4C3(C)C)C(C)(CCCCS(=O)(=O)O)c3cc(S(=O)(=O)[O-])ccc32)[C@H]2C[C@@H]1C2(C)C (stereo partly drawn) [Example 27, 1-(6-((6-((((1S,4S,5S)-4-(4-((R)-8-azido-2-methyl-3-phenyloctan-2-yl)-2,6-dimethoxyphenyl)-6,6-dimethylbicyclo[3.1.1]hept-2-en-2-yl)methyl)amino)-6-oxohexyl)amino)-6-oxohexyl)-2-((1E,3E)-5-((E)-3,3-dimethyl-5-sulfo-1-(3-sulfopropyl)indolin-2-ylidene)penta-1,3-dien-1-yl)-3-methyl-3-(4-sulfobutyl)-3H-indol-1-ium-5-sulfonate] | 25.9 nM | 7050 nM |  |  |
| CCCCC[C@H](C(F)(F)F)C(C)(C)c1cc(OC)c([C@H]2C=C(CO)[C@H]3C[C@@H]2C3(C)C)c(OC)c1 [Example 2, ((1S,4S,5S)-4-(2,6-dimethoxy-4-((S)-2-methyl-3-(trifluoromethyl)octan-2-yl)phenyl)-6,6-dimethylbicyclo[3.1.1]hept-2-en-2-yl)methanol] | 9.9 nM | 6530 nM | 11.7 nM | agonist |
| COc1cc(C(C)(C)[C@@H](CCCCCN=[N+]=[N-])c2ccccc2)cc(OC)c1[C@H]1C=C(CN)[C@H]2C[C@@H]1C2(C)C [Example 14, ((1S,4S,5S)-4-(4-((S)-8-azido-2-methyl-3-phenyloctan-2-yl)-2,6-dimethoxyphenyl)-6,6-dimethylbicyclo[3.1.1]hept-2-en-2-yl)methanamine] | 476 nM |  | 2690 nM | inverse agonist |
| C#CCCC(=O)NCC1=C[C@H](c2c(OC)cc(C(C)(C)[C@H](CCCCCN=[N+]=[N-])c3ccccc3)cc2OC)[C@@H]2C[C@H]1C2(C)C [Example 19, N-(((1S,4S,5S)-4-(4-((R)-8-azido-2-methyl-3-phenyloctan-2-yl)-2,6-dimethoxyphenyl)-6,6-dimethylbicyclo[3.1.1]hept-2-en-2-yl)methyl)pent-4-ynamide] | 0.42 nM |  | 33.1 nM | inverse agonist |
